From patent US20100028447A1, “Intranasal, Buccal, And Sublingual Administration Of Metanicotine Analogs” (TARGACEPT, INC., priority 2007, published 2010)
“Also recorded” adds a separate entry of the source.

How the values were obtained:
[1] = in vitro; details: human, pH 7.4, Papp
Excerpt: (§1) An in vitro model of MatTek EpiAir® tissue was used for the permeability assessment of the test articles and control compounds. The EpiAir® culture consists of cells that have been cultured to form a pseudo-stratified, highly differentiated model closely resembling the epithelial tissue of the human respiratory tract. The histological cross-sections of the cultured tissue reveal a pseudo-stratified mucociliary phenotype.
(§2) EpiAir® tissues plated in 12 well plates were pre-equilibrated for the assay by culturing them for 24 hours at 37° C. with 5% CO2 in a humidified incubator. On the day of the assay, the cultures were washed two times with Dulbeccos' Phosphate Buffered Saline (DPBS buffer) at pH 7.4, and then dosed with donor and receiver buffer applied to the apical and basolateral surfaces of the culture, respectively. The receiver buffer consisted of DPBS, at pH 7.4. The donor solution consisted of DPBS buffer containing the appropriate compounds as specified in Table 1. All treatments were performed in triplicate. The receiver buffer was sampled at 15, 30, 60, and 120 minutes, and the donor buffer was sampled at 120 minutes.
(§3) The Lucifer Yellow concentration in the receiver samples was measured using a FluoStar fluorescence plate reader (BMG Laboratories, Durham, N.C.).
(§4) The apparent permeability coefficient, Papp, was calculated as follows: […]
(§5) where: dCr/dt is the slope of the cumulative concentration in the receiver compartment versus time; Vr is the volume of the receiver compartment; A is the surface area of epithelium available for permeation; and Co is the dosing solution concentration.

[2] = test system: cultured human respiratory epithelium; assay: Permeation across cultured human respiratory epithelium (EpiAir tissue), apical-to-basolateral Papp; details: p<0.05, two-tailed t-test, N=3
Excerpt: as §1, §2, §3, §4, §5

CN[C@@H](C)C/C=C/c1cncc(OC)c1 [Compound A, (2S)-(4E)-N-methyl-5-(3-(5-methoxypyridin)yl)-4-penten-2-amine]
Papp at 120 min [1]: 25.1 ×10⁻⁶ cm/s

CNCC/C=C/c1cccnc1 [Compound B, N-methyl-(4-pyridin-3-yl-but-3-enyl)-amine]
Papp at 120 min ([1]; Treatment 1: Compound B assayed with controls, Average ± STD): 18.3 ± 0.28 ×10⁻⁶ cm/s | Papp at 120 min ([1]; Treatment 1: Compound B assayed with controls, Rep 1): 18.5 ×10⁻⁶ cm/s | Papp at 120 min ([1]; Treatment 1: Compound B assayed with controls, Rep 2): 18 ×10⁻⁶ cm/s | Papp at 120 min ([1]; Treatment 1: Compound B assayed with controls, Rep 3): 18.4 ×10⁻⁶ cm/s | Papp at 120 min ([1]; Treatment 2: Compound B assayed with controls + MAO inhibitor Pargyline, Average ± STD): 25.4 ± 0.41 ×10⁻⁶ cm/s | Papp at 120 min ([1]; Treatment 2: Compound B assayed with controls + MAO inhibitor Pargyline, Rep 1): 25.1 ×10⁻⁶ cm/s | Papp at 120 min ([1]; Treatment 2: Compound B assayed with controls + MAO inhibitor Pargyline, Rep 2): 25.9 ×10⁻⁶ cm/s | Papp at 120 min ([1]; Treatment 2: Compound B assayed with controls + MAO inhibitor Pargyline, Rep 3): 25.2 ×10⁻⁶ cm/s | Permeation (Papp) in the presence of the MAO inhibitor Pargyline compared to alone [2]: significantly lower Papp value in the absence, than in the presence; also recorded: significant increased
